Data published in patent US20230203098A1, “HUMAN TRANSFERRIN RECEPTOR BINDING PEPTIDE” (priority 2020, published 2023).
pKd: −log10 of the molar value. Where two headings read alike, the source gives them in different places. Where a SMILES comes first, the peptide text is derived from it. Bridges are numbered along the chain shown (N, C = ends). [ ]: non-standard residue; d: D form. PEG12 = NCCOCCOCCOCCOCCOCCOCCOCCOCCOCCOCCOCCOCCC(=O)O; NMePhe(3-Cl) = CN[C@@H](Cc1cccc(Cl)c1)C(=O)O; NMeW = CN[C@@H](Cc1c[nH]c2ccccc12)C(=O)O; NMeY = CN[C@@H](Cc1ccc(O)cc1)C(=O)O; NMeF = CN[C@@H](Cc1ccccc1)C(=O)O; PEG4 = NCCOCCOCCOCCOCCC(=O)O; hLys = NCCCCC[C@H](N)C(=O)O; Sar = CNCC(=O)O

Target: transferrin receptor (hTfR) (Homo sapiens, UniProt P02786)
Experiment: Intermolecular interaction evaluation test between transferrin receptor (hTfR) and peptide by surface plasmon resonance (SPR)
Assay type: binding
Summary of the method: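 Receptor was Ni-captured and EDC/NHS-fixed on an NTA chip; running buffer HEPES pH 8.0 with NaCl, Tween 20, BSA and 1.0% DMSO.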

[1] = surface plasmon resonance, hTfR, read-out: KD value for hTfR by SPR (class symbol)
[2] = surface plasmon resonance, peptide vs hTfR, read-out: KD value, hTfR binding by SPR (class symbol)
[3] = binding to hTfR by SPR, Table 2 peptides, read-out: KD value (SPR) class

transferrin receptor (hTfR), sequence (P02786 whole entry): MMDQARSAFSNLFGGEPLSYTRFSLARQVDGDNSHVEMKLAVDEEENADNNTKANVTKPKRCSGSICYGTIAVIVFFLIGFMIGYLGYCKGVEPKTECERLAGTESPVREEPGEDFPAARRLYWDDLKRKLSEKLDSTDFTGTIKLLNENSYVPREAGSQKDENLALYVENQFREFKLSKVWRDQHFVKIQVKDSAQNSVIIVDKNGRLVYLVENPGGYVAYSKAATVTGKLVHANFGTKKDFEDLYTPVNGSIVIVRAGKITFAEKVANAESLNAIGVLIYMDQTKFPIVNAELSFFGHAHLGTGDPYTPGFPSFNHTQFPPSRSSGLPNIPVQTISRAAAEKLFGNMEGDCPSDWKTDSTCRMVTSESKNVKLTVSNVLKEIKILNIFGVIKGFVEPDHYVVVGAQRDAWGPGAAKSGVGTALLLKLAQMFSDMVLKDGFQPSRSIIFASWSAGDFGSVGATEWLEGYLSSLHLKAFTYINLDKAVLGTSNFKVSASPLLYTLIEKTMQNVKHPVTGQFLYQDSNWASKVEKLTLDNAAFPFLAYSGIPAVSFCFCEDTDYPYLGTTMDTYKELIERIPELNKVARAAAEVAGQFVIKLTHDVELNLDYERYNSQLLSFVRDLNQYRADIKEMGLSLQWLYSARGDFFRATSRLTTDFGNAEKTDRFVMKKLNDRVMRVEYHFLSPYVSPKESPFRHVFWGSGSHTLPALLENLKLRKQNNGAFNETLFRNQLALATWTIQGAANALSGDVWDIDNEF

Work on CC[C@H](C)[C@@H]1NC(=O)[C@H](Cc2ccc(O)cc2)NC(=O)[C@H](Cc2ccc(O)cc2)NC(=O)[C@H](CC(N)=O)NC(=O)[C@H](Cc2c[nH]c3ccccc23)NC(=O)[C@H](C(C)C)NC(=O)[C@H](Cc2ccccc2)N(C)C(=O)[C@H](C(C)C)NC(=O)[C@H](C)NC(=O)CSC[C@@H](C(=O)NCC(=O)N[C@@H](CCCCNC(=O)C2CCC(CN3C(=O)C=CC3=O)CC2)C(N)=O)NC(=O)[C@H](Cc2ccc(O)cc2)N(C)C(=O)[C@H](Cc2ccc(O)cc2)NC(=O)[C@H](CCCNC(=N)N)NC(=O)[C@H](CCCNC(=N)N)NC(=O)[C@H]([C@@H](C)CC)NC1=O (some centres unmarked) [compound 188] yielded a pKd (hTfR binding by SPR, hTfR No. 894 variant peptides, linker-added peptides and payload conjugates (Table 2), read-out: KD value obtained from the SPR measurement) of 7.00 to 9.00.

With CC[C@H](C)[C@@H]1NC(=O)[C@H](Cc2ccc(OC)cc2)NC(=O)[C@H](Cc2ccc(O)cc2)NC(=O)[C@H](CC(N)=O)NC(=O)[C@H](Cc2c[nH]c3ccccc23)N(C)C(=O)[C@H](C(C)C)NC(=O)[C@H](Cc2cccc(Cl)c2)N(C)C(=O)[C@H](C(C)C)NC(=O)[C@H](C)NC(=O)CSC[C@@H](C(=O)NCCOCCOCCOCCOCCC(N)=O)NC(=O)[C@H](Cc2ccc(O)cc2)N(C)C(=O)[C@H](Cc2ccccc2)NC(=O)[C@@H](CCCNC(=N)N)NC(=O)[C@H](CCCNC(=N)N)NC(=O)[C@H]([C@@H](C)CC)NC1=O [compound 400] the pKd [1] was 7.00 to 9.00.

For CC[C@H](C)[C@@H]1NC(=O)[C@H](Cc2ccc(OC)cc2)NC(=O)[C@H](Cc2ccc(O)cc2)NC(=O)[C@H](CC(N)=O)NC(=O)[C@H](Cc2c[nH]c3ccccc23)N(C)C(=O)[C@H](C(C)C)NC(=O)[C@H](Cc2cccc(Cl)c2)N(C)C(=O)[C@H](C(C)C)NC(=O)[C@H](C)NC(=O)CSC[C@@H](C(N)=O)NC(=O)[C@H](Cc2ccc(O)cc2)N(C)C(=O)[C@H](Cc2ccccc2)NC(=O)[C@@H](CCCNC(=N)N)NC(=O)[C@H](CCCCN)N(C)C(=O)[C@H]([C@@H](C)CC)NC1=O [compound 377], the pKd [1] was 7.00 to 9.00.

CC[C@H](C)[C@@H]1NC(=O)[C@H](Cc2ccc(OC)cc2)NC(=O)[C@H](Cc2ccc(O)cc2)NC(=O)[C@H](CC(N)=O)NC(=O)[C@H](Cc2c[nH]c3ccccc23)N(C)C(=O)[C@H](C(C)C)NC(=O)[C@H](Cc2cccc(Cl)c2)N(C)C(=O)[C@H](C(C)C)NC(=O)[C@H](C)NC(=O)CSC[C@@H](C(=O)NCCOCCOCCOCCOCCC(N)=O)NC(=O)[C@H](Cc2ccc(O)cc2)N(C)C(=O)[C@H](Cc2ccccc2)NC(=O)[C@@H](CCCNC(=N)N)NC(=O)[C@H](CCCNC(=N)N)NC(=O)[C@H](CCCCCN)NC1=O [compound 339] ({CH2CO}-AV[NMePhe(3-Cl)]V[NMeW]NYY(Me)I[hLys]R[dR]F[NMeY]C[PEG4]-NH2; thioether N-15) showed a pKd [2] of 7.00 to 9.00.

CC[C@H](C)[C@@H]1NC(=O)[C@H](Cc2ccc(O)cc2)NC(=O)[C@H](Cc2ccc(O)cc2)NC(=O)[C@H](CC(N)=O)NC(=O)[C@H](Cc2c[nH]c3ccccc23)NC(=O)[C@H](C(C)C)NC(=O)[C@H](Cc2ccccc2)NC(=O)[C@H](C(C)C)NC(=O)[C@H](C)NC(=O)CSC[C@H](C(=O)NCCOCCOCCOCCOCCC(=O)N[C@@H](CNC(=O)c2ccc(-c3c4ccc(=O)cc-4oc4cc(O)ccc34)c(C(=O)O)c2)C(N)=O)NC(=O)[C@H](Cc2ccc(O)cc2)N(C)C(=O)[C@H](Cc2ccc(O)cc2)NC(=O)[C@H](CCCNC(=N)N)NC(=O)[C@H](CCCNC(=N)N)NC(=O)[C@H]([C@@H](C)CC)NC1=O [compound 160] was tested, and the pKd (SPR, linker and payload (FITC, VivoTag) conjugates, read-out: KD) was 7.00 to 9.00.

CC[C@H](C)[C@@H]1NC(=O)[C@H](Cc2ccc(OC)cc2)NC(=O)[C@H](Cc2ccc(O)cc2)NC(=O)[C@H](CC(N)=O)NC(=O)[C@H](Cc2c[nH]c3ccccc23)N(C)C(=O)[C@H](C(C)C)NC(=O)[C@H](Cc2cccc(Cl)c2)N(C)C(=O)[C@H](C(C)C)NC(=O)[C@H](C)NC(=O)CSC[C@@H](C(=O)NCC(=O)N[C@H](CCC(=O)O)C(=O)NCC(=O)N[C@H](CCCCN)C(=O)N[C@@H](CO)C(=O)N[C@@H](CO)C(=O)N[C@@H](CS)C(N)=O)NC(=O)[C@H](Cc2ccc(O)cc2)N(C)C(=O)[C@H](Cc2ccccc2)NC(=O)[C@@H](CCCNC(=N)N)NC(=O)[C@H](CCCNC(=N)N)NC(=O)[C@H]([C@@H](C)CC)NC1=O [compound 404] ({CH2CO}-AV[NMePhe(3-Cl)]V[NMeW]NYY(Me)IIR[dR]F[NMeY]CG[dE]G[dK]SSC-NH2; thioether N-15) gave a pKd [1] of 7.00 to 9.00.

For CC[C@H](C)[C@@H]1NC(=O)[C@H](Cc2ccc(O)cc2)NC(=O)[C@H](Cc2ccc(O)cc2)NC(=O)[C@H](CC(N)=O)NC(=O)[C@H](Cc2c[nH]c3ccccc23)NC(=O)[C@H](C(C)C)NC(=O)[C@H](Cc2ccccc2)NC(=O)[C@H](C(C)C)NC(=O)[C@H](C)NC(=O)CSC[C@@H](C(N)=O)NC(=O)[C@H](Cc2ccc(O)cc2)N(C)C(=O)[C@H](Cc2ccc(O)cc2)NC(=O)[C@H](C)NC(=O)[C@H](CCCNC(=N)N)NC(=O)[C@H]([C@@H](C)CC)NC1=O [compound 256], the pKd [3] was 7.00 to 9.00.

Compound CC[C@H](C)[C@@H]1NC(=O)[C@H](Cc2ccc(O)cc2)NC(=O)[C@H](Cc2ccc(O)cc2)NC(=O)[C@H](CC(N)=O)NC(=O)[C@H](Cc2c[nH]c3ccccc23)NC(=O)[C@H](C(C)C)NC(=O)[C@H](Cc2ccccc2)N(C)C(=O)[C@H](C(C)C)NC(=O)[C@H](C)NC(=O)CSC[C@@H](C(=O)NCCOCCOCCOCCOCCOCCOCCOCCOCCOCCOCCOCCOCCC(N)=O)NC(=O)[C@H](Cc2ccc(O)cc2)N(C)C(=O)[C@H](Cc2ccc(O)cc2)NC(=O)[C@H](CCCNC(=N)N)NC(=O)[C@H](Cc2ccc(O)cc2)NC(=O)[C@H]([C@@H](C)CC)NC1=O [compound 121] ({CH2CO}-AV[NMeF]VWNYYIIYRY[NMeY]C[PEG12]-NH2; thioether N-15) has a pKd (SPR, hTfR No. 894 variants with PEG12c linker (Table 2), read-out: KD) of 7.00 to 9.00.

Work on CC[C@H](C)[C@@H]1NC(=O)[C@H](Cc2ccc(OC)cc2)NC(=O)[C@H](Cc2ccc(O)cc2)NC(=O)[C@H](CC(N)=O)NC(=O)[C@H](Cc2c[nH]c3ccccc23)N(C)C(=O)[C@H](C(C)C)NC(=O)[C@H](Cc2cccc(Cl)c2)N(C)C(=O)[C@H](CCC(=O)O)NC(=O)[C@H](C)NC(=O)CSC[C@@H](C(=O)N[C@H](CCC(=O)O)C(=O)NCC(=O)NCC(=O)NCC(=O)N[C@@H](CO)C(=O)N[C@@H](CO)C(=O)N[C@@H](CS)C(N)=O)NC(=O)[C@H](Cc2ccc(O)cc2)N(C)C(=O)[C@H](Cc2ccccc2)NC(=O)[C@@H](CCCNC(=N)N)NC(=O)[C@H](CCCCN)NC(=O)[C@H]([C@@H](C)CC)NC1=O [compound 230] ({CH2CO}-AE[NMePhe(3-Cl)]V[NMeW]NYY(Me)IIK[dR]F[NMeY]C[dE]GGGSSC-NH2; thioether N-15) yielded a pKd (SPR, peptides, linker-added peptides and FITC conjugates, Patent ID 203-230, read-out: KD) of 7.00 to 9.00.

CC[C@H](C)[C@@H]1NC(=O)[C@H](Cc2ccc(O)cc2)NC(=O)[C@H](Cc2ccc(O)cc2)NC(=O)[C@H](Cc2c[nH]cn2)NC(=O)[C@H](Cc2c[nH]c3ccccc23)NC(=O)[C@H](C(C)C)NC(=O)[C@H](Cc2ccccc2)N(C)C(=O)[C@H](C(C)C)NC(=O)[C@H](C)NC(=O)CSC[C@@H](C(N)=O)NC(=O)[C@H](Cc2ccc(O)cc2)N(C)C(=O)[C@H](Cc2ccc(O)cc2)NC(=O)[C@H](CCCNC(=N)N)NC(=O)[C@H](CCCNC(=N)N)NC(=O)[C@H]([C@@H](C)CC)NC1=O [compound 274] gave a pKd [3] of 6.00 to 7.00.

In the case of CC[C@H](C)[C@@H]1NC(=O)[C@H](Cc2ccc(OC)cc2)NC(=O)[C@H](Cc2ccc(O)cc2)NC(=O)[C@H](CC(N)=O)NC(=O)[C@H](Cc2c[nH]c3ccccc23)N(C)C(=O)[C@H](C(C)C)NC(=O)[C@H](Cc2cccc(Cl)c2)N(C)C(=O)[C@H](C(C)C)NC(=O)[C@H](C)NC(=O)CSC[C@@H](C(=O)NCCOCCOCCOCCOCCC(N)=O)NC(=O)[C@H](Cc2ccc(O)cc2)N(C)C(=O)[C@H](Cc2ccccc2)NC(=O)[C@@H](CCCNC(=N)N)NC(=O)[C@H](CCCNC(=N)N)NC(=O)[C@H]([C@@H](C)O)NC1=O [compound 331], the pKd [2] was 7.00 to 9.00.

Work on CC[C@H](C)[C@@H]1NC(=O)[C@H](Cc2ccc(OC)cc2)NC(=O)[C@H](Cc2ccc(O)cc2)NC(=O)[C@H](CC(N)=O)NC(=O)[C@H](Cc2c[nH]c3ccccc23)N(C)C(=O)[C@H](C(C)C)NC(=O)[C@H](Cc2cccc(Cl)c2)N(C)C(=O)[C@H](C(C)C)NC(=O)[C@H](C)NC(=O)CSC[C@@H](C(=O)N(C)CC(=O)N(C)CC(=O)N(C)CC(N)=O)NC(=O)[C@H](Cc2ccc(O)cc2)N(C)C(=O)[C@H](Cc2ccccc2)NC(=O)[C@@H](CCCNC(=N)N)NC(=O)[C@H](CCCNC(=N)N)NC(=O)[C@H]([C@@H](C)CC)NC1=O [compound 399] ({CH2CO}-AV[NMePhe(3-Cl)]V[NMeW]NYY(Me)IIR[dR]F[NMeY]C[Sar][Sar][Sar]-NH2; thioether N-15) yielded a pKd of 7.00 to 9.00.

With CC[C@H](C)[C@@H]1NC(=O)[C@H](Cc2ccc(OC)cc2)NC(=O)[C@H](Cc2ccc(O)cc2)NC(=O)[C@H](CC(N)=O)NC(=O)[C@H](Cc2c[nH]c3ccccc23)N(C)C(=O)[C@H](C(C)C)NC(=O)[C@H](Cc2cccc(Cl)c2)N(C)C(=O)[C@H](C(C)C)NC(=O)[C@H](C)NC(=O)CSC[C@@H](C(N)=O)NC(=O)[C@H](Cc2ccc(O)cc2)N(C)C(=O)[C@H](Cc2ccccc2)NC(=O)[C@@H](CCCNC(=N)N)NC(=O)C(C)(C)NC(=O)[C@H]([C@@H](C)CC)NC1=O [compound 353] the pKd [1] was 7.00 to 9.00.

In the case of CC[C@H](C)[C@@H]1NC(=O)[C@H](Cc2ccc(OC)cc2)NC(=O)[C@H](Cc2ccc(O)cc2)NC(=O)[C@H](CC(N)=O)NC(=O)[C@H](Cc2c[nH]c3ccccc23)N(C)C(=O)[C@H](C(C)C)NC(=O)[C@H](Cc2cccc(Cl)c2)N(C)C(=O)[C@H](C(C)C)NC(=O)[C@H](C)NC(=O)CSC[C@@H](C(=O)NCC(=O)NCC(=O)NCC(=O)NCC(=O)N[C@@H](CO)C(=O)N[C@@H](CO)C(=O)N[C@@H](CS)C(N)=O)NC(=O)[C@H](Cc2ccc(O)cc2)N(C)C(=O)[C@H](Cc2ccccc2)NC(=O)[C@@H](CCCNC(=N)N)NC(=O)[C@H](CCCCN)NC(=O)[C@H]([C@@H](C)CC)NC1=O [compound 376], the pKd [1] was 7.00 to 9.00.
